The target of one assay is T1, PTPN1 (i.e., PTP1B) (Homo sapiens, UniProt P18031).
T1 sequence (P18031 1-435): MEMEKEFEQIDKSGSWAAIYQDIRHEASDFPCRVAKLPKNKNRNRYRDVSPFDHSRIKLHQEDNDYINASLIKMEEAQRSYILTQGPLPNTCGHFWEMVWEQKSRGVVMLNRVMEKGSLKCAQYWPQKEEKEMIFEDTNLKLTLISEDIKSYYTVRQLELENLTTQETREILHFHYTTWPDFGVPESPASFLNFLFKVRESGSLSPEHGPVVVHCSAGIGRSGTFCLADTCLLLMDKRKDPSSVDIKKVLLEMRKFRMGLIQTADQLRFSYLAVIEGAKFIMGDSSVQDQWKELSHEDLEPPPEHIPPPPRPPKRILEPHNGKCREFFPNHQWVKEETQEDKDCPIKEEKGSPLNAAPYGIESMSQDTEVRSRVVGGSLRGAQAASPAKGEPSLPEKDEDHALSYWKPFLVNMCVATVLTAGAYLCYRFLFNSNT
The experiment in a line: Phosphatase activity assay (DiFMUP substrate), PTP1B. It counts as biochemical. The note with it: compounds binned ≤1 uM or >1 uM. An outline of the steps: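 Read-out is continuous fluorescence of DiFMU (360 nm excitation, 450 nm emission) over about 15-30 minutes, with DiFMUP substrate at the enzyme's independently determined Km (PTPN2 approx. 45 μM final). Buffer: 50 mM HEPES pH 7.5, 150 mM NaCl, 0.5 mM EDTA, 1 mM DTT, 0.001% Tween-20, room temperature; initial rates versus 10-point dilution fitted for IC50, at least duplicate.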

The next assay deals with T2, PTPN2 (i.e., TC-PTP) (Homo sapiens, UniProt P17706).
T2 sequence (P17706 1-415): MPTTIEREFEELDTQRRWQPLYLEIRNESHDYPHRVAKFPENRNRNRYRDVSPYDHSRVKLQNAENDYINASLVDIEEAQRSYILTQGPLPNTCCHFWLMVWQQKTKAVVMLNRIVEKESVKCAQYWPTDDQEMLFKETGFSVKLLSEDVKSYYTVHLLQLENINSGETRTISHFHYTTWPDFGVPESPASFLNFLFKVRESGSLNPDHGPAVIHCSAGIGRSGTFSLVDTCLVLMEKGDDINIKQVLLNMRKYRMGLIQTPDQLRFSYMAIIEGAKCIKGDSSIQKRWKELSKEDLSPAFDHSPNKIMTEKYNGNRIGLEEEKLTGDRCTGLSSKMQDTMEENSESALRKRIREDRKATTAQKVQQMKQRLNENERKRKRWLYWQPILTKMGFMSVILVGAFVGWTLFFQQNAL
The experiment in a line: Phosphatase activity assay (DiFMUP substrate), PTPN2. Type of assay: biochemical. The settings on record: compounds binned ≤1 uM or >1 uM. The gist of the method: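 Continuous fluorogenic readout of DiFMUP dephosphorylation at room temperature, substrate set at Km for each phosphatase (about 45 μM in the PTPN2 assay). The buffer contains 1 mM DTT and 0.001% Tween-20, pH 7.5.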

The structures appear in SMILES notation. pIC50: −log10 of the molar value.

Broadly, the pIC50 is −log10 of the IC50, conventionally taken in molar units. Take `O=C1CN(c2c(O)ccc(-c3cnn(Cc4cncnc4)c3)c2F)S(=O)(=O)N1` [Compound 197, 5-(2-fluoro-6-hydroxy-3-(1-(pyrimidin-5-ylmethyl)-1H-pyrazol-4-yl)phenyl)-1,2,5-thiadiazolidin-3-one 1,1-dioxide]: the negative logarithm of the IC50 (pIC50) at PTPN1 (i.e., PTP1B) was at least 6.00; on PTPN2 (i.e., TC-PTP) it was at least 6.00.

Turning to `CC(C)CCN1CCCC(c2ccc(O)c(N3CC(=O)NS3(=O)=O)c2F)C1` (centres unmarked) [Compound 198, 5-(2-fluoro-6-hydroxy-3-(1-isopentylpiperidin-3-yl)phenyl)-1,2,5-thiadiazolidin-3-one 1,1-dioxide], the pIC50 at PTPN1 (i.e., PTP1B) was at least 6.00; at PTPN2 (i.e., TC-PTP), below 6.00.

As for `Cc1nc(-c2ccc(O)c(N3CC(=O)NS3(=O)=O)c2F)cn1C` [Compound 199, 5-(3-(1,2-dimethyl-1H-imidazol-4-yl)-2-fluoro-6-hydroxyphenyl)-1,2,5-thiadiazolidin-3-one 1,1-dioxide], the negative-log IC50 (pIC50) is at least 6.00 on PTPN1 (i.e., PTP1B) and at least 6.00 on PTPN2 (i.e., TC-PTP).

Regarding `O=C1CN(c2c(O)ccc(-c3cn(Cc4cccc(F)c4)cn3)c2F)S(=O)(=O)N1` [Compound 200, 5-(2-fluoro-3-(1-(3-fluorobenzyl)-1H-imidazol-4-yl)-6-hydroxyphenyl)-1,2,5-thiadiazolidin-3-one 1,1-dioxide], the negative logarithm of the IC50 (pIC50) was at least 6.00 at PTPN1 (i.e., PTP1B) and at least 6.00 on PTPN2 (i.e., TC-PTP).

For the compound `CC(C)CCOC1CCCN(c2cc(O)c(N3CC(=O)NS3(=O)=O)c(F)c2)C1` (centres unmarked) [Compound 201, 5-(2-fluoro-6-hydroxy-4-(3-(isopentyloxy)piperidin-1-yl)phenyl)-1,2,5-thiadiazolidin-3-one 1,1-dioxide], the negative logarithm of the IC50 (pIC50) at PTPN1 (i.e., PTP1B) was at least 6.00; at PTPN2 (i.e., TC-PTP) it was at least 6.00.

`CN1CCN(c2ccc(-c3ccc(O)c(N4CC(=O)NS4(=O)=O)c3F)cn2)CC1` [Compound 202, 5-(2-fluoro-6-hydroxy-3-(6-(4-methylpiperazin-1-yl)pyridin-3-yl)phenyl)-1,2,5-thiadiazolidin-3-one 1,1-dioxide]: the pIC50 on PTPN1 (i.e., PTP1B) was at least 6.00; on PTPN2 (i.e., TC-PTP), at least 6.00.

As for `CC(C)CCn1cc(-c2ccc(O)c(N3CC(=O)NS3(=O)=O)c2F)cn1` [Compound 203, 5-(2-fluoro-6-hydroxy-3-(1-isopentyl-1H-pyrazol-4-yl)phenyl)-1,2,5-thiadiazolidin-3-one 1,1-dioxide], the pIC50 on PTPN1 (i.e., PTP1B) was at least 6.00; on PTPN2 (i.e., TC-PTP), at least 6.00.

With `N#CCCn1cc(-c2ccc(O)c(N3CC(=O)NS3(=O)=O)c2F)cn1` [Compound 204, 3-(4-(3-(1,1-dioxido-4-oxo-1,2,5-thiadiazolidin-2-yl)-2-fluoro-4-hydroxyphenyl)-1H-pyrazol-1-yl)propanenitrile], the pIC50 at PTPN1 (i.e., PTP1B) was at least 6.00; at PTPN2 (i.e., TC-PTP), at least 6.00.

For the compound `O=C1CN(c2c(O)ccc(-c3cn(Cc4ccccc4)nn3)c2F)S(=O)(=O)N1` [Compound 205, 5-(3-(1-benzyl-1H-1,2,3-triazol-4-yl)-2-fluoro-6-hydroxyphenyl)-1,2,5-thiadiazolidin-3-one 1,1-dioxide], the pIC50 is at least 6.00 on PTPN1 (i.e., PTP1B) and at least 6.00 on PTPN2 (i.e., TC-PTP).

Turning to `COc1cc(-c2ccc(O)c(N3CC(=O)NS3(=O)=O)c2F)c(F)cn1` [Compound 206, 5-(2-fluoro-3-(5-fluoro-2-methoxypyridin-4-yl)-6-hydroxyphenyl)-1,2,5-thiadiazolidin-3-one 1,1-dioxide], the pIC50 was at least 6.00 at PTPN1 (i.e., PTP1B) and at least 6.00 at PTPN2 (i.e., TC-PTP).

On to `O=C1CN(c2c(O)ccc(-c3cnn(CCc4ccccc4)c3)c2F)S(=O)(=O)N1` [Compound 207, 5-(2-fluoro-6-hydroxy-3-(1-phenethyl-1H-pyrazol-4-yl)phenyl)-1,2,5-thiadiazolidin-3-one 1,1-dioxide], for which the negative-log IC50 (pIC50) was at least 6.00 on PTPN1 (i.e., PTP1B) and at least 6.00 on PTPN2 (i.e., TC-PTP).

As to `CN(C)c1ccc(-c2ccc(O)c(N3CC(=O)NS3(=O)=O)c2F)cn1` [Compound 208, 5-(3-(6-(dimethylamino)pyridin-3-yl)-2-fluoro-6-hydroxyphenyl)-1,2,5-thiadiazolidin-3-one 1,1-dioxide], the negative logarithm of the IC50 (pIC50) on PTPN1 (i.e., PTP1B) is at least 6.00; at PTPN2 (i.e., TC-PTP) it was at least 6.00.

As to `O=C1CN(c2c(O)ccc(-c3cn(-c4ccc(F)cc4)cn3)c2F)S(=O)(=O)N1` [Compound 209, 5-(2-fluoro-3-(1-(4-fluorophenyl)-1H-imidazol-4-yl)-6-hydroxyphenyl)-1,2,5-thiadiazolidin-3-one 1,1-dioxide], the negative-log IC50 (pIC50) was at least 6.00 at PTPN1 (i.e., PTP1B) and at least 6.00 at PTPN2 (i.e., TC-PTP).

As for `CC(C)CCN1CCC=C(c2ccc(O)c(N3CC(=O)NS3(=O)=O)c2F)C1` [Compound 210, 5-(2-fluoro-6-hydroxy-3-(1-isopentyl-1,2,5,6-tetrahydropyridin-3-yl)phenyl)-1,2,5-thiadiazolidin-3-one 1,1-dioxide], the pIC50 is at least 6.00 on PTPN1 (i.e., PTP1B) and at least 6.00 at PTPN2 (i.e., TC-PTP).

Turning to `O=C1CN(c2c(O)ccc(-c3cnn(Cc4ccc(F)c(F)c4)c3)c2F)S(=O)(=O)N1` [Compound 211, 5-(3-(1-(3,4-difluorobenzyl)-1H-pyrazol-4-yl)-2-fluoro-6-hydroxyphenyl)-1,2,5-thiadiazolidin-3-one 1,1-dioxide], the pIC50 at PTPN1 (i.e., PTP1B) is at least 6.00; on PTPN2 (i.e., TC-PTP), at least 6.00.

`O=C1CN(c2c(O)ccc(-c3cnn(Cc4ccccc4)c3)c2F)S(=O)(=O)N1` [Compound 212, 5-(3-(1-benzyl-1H-pyrazol-4-yl)-2-fluoro-6-hydroxyphenyl)-1,2,5-thiadiazolidin-3-one 1,1-dioxide]: the pIC50 on PTPN1 (i.e., PTP1B) was at least 6.00; on PTPN2 (i.e., TC-PTP) it was at least 6.00.

With `COc1ccc(-c2ccc(O)c(N3CC(=O)NS3(=O)=O)c2F)cn1` [Compound 213, 5-(2-fluoro-6-hydroxy-3-(6-methoxypyridin-3-yl)phenyl)-1,2,5-thiadiazolidin-3-one 1,1-dioxide], the pIC50 on PTPN1 (i.e., PTP1B) is at least 6.00; on PTPN2 (i.e., TC-PTP), at least 6.00.

Regarding `O=C1CN(c2c(O)ccc(-c3cnn(C4CCOCC4)c3)c2F)S(=O)(=O)N1` [Compound 214, 5-(2-fluoro-6-hydroxy-3-(1-(tetrahydro-2H-pyran-4-yl)-1H-pyrazol-4-yl)phenyl)-1,2,5-thiadiazolidin-3-one 1,1-dioxide], the negative logarithm of the IC50 (pIC50) at PTPN1 (i.e., PTP1B) is at least 6.00; at PTPN2 (i.e., TC-PTP), at least 6.00.

Regarding `CCCCNc1ccc(-c2ccc(O)c(N3CC(=O)NS3(=O)=O)c2F)cn1` [Compound 215, 5-(3-(6-(butylamino)pyridin-3-yl)-2-fluoro-6-hydroxyphenyl)-1,2,5-thiadiazolidin-3-one 1,1-dioxide], the negative-log IC50 (pIC50) was at least 6.00 on PTPN1 (i.e., PTP1B) and at least 6.00 on PTPN2 (i.e., TC-PTP).

With `CC(C)CCn1cnc(-c2ccc(O)c(N3CC(=O)NS3(=O)=O)c2F)c1` [Compound 216, 5-(2-fluoro-6-hydroxy-3-(1-isopentyl-1H-imidazol-4-yl)phenyl)-1,2,5-thiadiazolidin-3-one 1,1-dioxide], the negative logarithm of the IC50 (pIC50) was at least 6.00 at PTPN1 (i.e., PTP1B) and at least 6.00 at PTPN2 (i.e., TC-PTP).

Regarding `O=C1CN(c2c(O)ccc(-c3cnn(Cc4ccc(C(F)(F)F)cc4)c3)c2F)S(=O)(=O)N1` [Compound 217, 5-(2-fluoro-6-hydroxy-3-(1-(4-(trifluoromethyl)benzyl)-1H-pyrazol-4-yl)phenyl)-1,2,5-thiadiazolidin-3-one 1,1-dioxide], the pIC50 at PTPN1 (i.e., PTP1B) is at least 6.00; at PTPN2 (i.e., TC-PTP) it was at least 6.00.

On to `O=C1CN(c2c(O)ccc(-c3cc(O)cc4ccccc34)c2F)S(=O)(=O)N1` [Compound 218, 5-(2-fluoro-6-hydroxy-3-(3-hydroxynaphthalen-1-yl)phenyl)-1,2,5-thiadiazolidin-3-one 1,1-dioxide], for which the negative-log IC50 (pIC50) on PTPN1 (i.e., PTP1B) is below 6.00; on PTPN2 (i.e., TC-PTP), below 6.00.

In the case of `CC(C)CCn1cc(-c2ccc(O)c(N3CC(=O)NS3(=O)=O)c2F)nn1` [Compound 219, 5-(2-fluoro-6-hydroxy-3-(1-isopentyl-1H-1,2,3-triazol-4-yl)phenyl)-1,2,5-thiadiazolidin-3-one 1,1-dioxide], the negative-log IC50 (pIC50) on PTPN1 (i.e., PTP1B) is at least 6.00; on PTPN2 (i.e., TC-PTP) it was at least 6.00.

For the compound `O=C1CN(c2c(O)ccc(-c3ccc(=O)n(Cc4ccccc4)c3)c2F)S(=O)(=O)N1` [Compound 220, 5-(3-(1-benzyl-6-oxo-1,6-dihydropyridin-3-yl)-2-fluoro-6-hydroxyphenyl)-1,2,5-thiadiazolidin-3-one 1,1-dioxide], the pIC50 at PTPN1 (i.e., PTP1B) is at least 6.00; on PTPN2 (i.e., TC-PTP), at least 6.00.

`CC(C)CCn1cc(-c2cc(O)cc(N3CC(=O)NS3(=O)=O)c2F)cn1` [Compound 221, 5-(2-fluoro-5-hydroxy-3-(1-isopentyl-1H-pyrazol-4-yl)phenyl)-1,2,5-thiadiazolidin-3-one 1,1-dioxide]: the negative logarithm of the IC50 (pIC50) at PTPN1 (i.e., PTP1B) is below 6.00; on PTPN2 (i.e., TC-PTP), below 6.00.

These data come from patent US20240398828A1, “HETERO-ATOM CONTAINING COMPOUNDS AND USES THEREOF” (Kumquat Biosciences Inc., priority 2021, published 2024).
